# In patent US20030158160A1, “Pharmaceutical combination of an anti-androgen and tamoxifen for providing an anti-androgenic effect and aromatase inhibition” (priority 2000, published 2003):
# What was measured:
# healthy male volunteers = assay: Human clinical trial: free testosterone levels after CASODEX together with NOLVADEX or CASODEX alone; assay type: in vivo; details: for Free testosterone concentration, gmean: n=7
# Method: The following clinical trial was performed to determine the effect of the administration of CASODEX™ together with NOLVADEX™ on free testosterone levels in healthy male volunteers over a 6 week period.
# Key Inclusion Criteria: Male, aged 65 years or above showing no clinically significant abnormalities in routine haematological and biochemical tests and having endocrinology and prostate specific antigen (PSA) results within normal limits.
# Key Exclusion Criteria: Previous inclusion in a clinical trial using CASODEX™; concurrent treatment with any drugs with the exception of paracetomol; history or presence of any testicular abnormality; history or presence of gastrointestinal, hepatic or renal disease, or other condition known to interfere with the absorption, distribution, metabolism or excretion of drugs; a clinically significant illness within 2 weeks of trial commencement; definite or suspected personal or family history of significant adverse drug reactions or any hypersensitivity to CASODEX™ or NOLVADEX™; treatment within the previous 3 months with any drugs known to have a well-defined potential for hepatotoxicity or hepatic interaction.
# Dosage: The CASODEX™ was administered daily at a dose of 150 mg and the NOLVADEX™ was administered daily at a dose of 20 mg. All treatments were in tablet form and taken once daily. Daily treatment with CASODEX™ plus NOLVADEX™ was for 6 weeks, this period being selected as the minimum time to attain steady-state plasma concentrations for the drugs. Another set of volunteers were administered CASODEX™ alone at a daily dose of 150 mg for 4 weeks. All treatments were in tablet form and taken once daily.
# Key Assessment: Free testosterone concentrations were measured during the course of the trial.
# Day 1 samples were drawn before dosing, and therefore act as a baseline measurement.
# humans = details: single agent therapy; cited from earlier work
# men = details: cited from earlier work
structure (smiles),measurement,setting,value
"CC(O)(CS(=O)(=O)c1ccc(F)cc1)C(=O)Nc1ccc(C#N)c(C(F)(F)F)c1 (stereo not drawn) [CASODEX™, bicalutamide]","Free testosterone concentration, gmean","healthy male volunteers; Day 1, sample drawn before dosing (baseline)",0.048 nmol/L
same,"Free testosterone, ratio to Day 1","healthy male volunteers; Day 29, CASODEX alone 150 mg daily",1.58
same,"Free testosterone concentration, gmean","healthy male volunteers; Day 29, CASODEX alone 150 mg daily for 4 weeks",0.076 nmol/L
same,Increase in mean free testosterone concentration by the end of the treatment period,healthy male volunteers; end of treatment period (4 weeks CASODEX alone; 6 weeks combination),58%
"CC1(C)NC(=O)N(c2ccc([N+](=O)[O-])c(C(F)(F)F)c2)C1=O [nilutamide, 5,5-dimethyl-3-[4-nitro-3-(trifluoromethyl)phenyl]-2,4-imidazolidinedione]",Change of basal level of circulating testosterone,humans,causes an increase
"CC/C(=C(\c1ccccc1)c1ccc(OCCN(C)C)cc1)c1ccccc1 [tamoxifen, (Z)-2-[p-(1,2-diphenylbut-1-enyl)phenoxy]ethyldimethylamine]","Effect on mean serum testosterone, oestradiol, LH levels, LH pulse frequency and LH pulse amplitude","men; 13 normal men, 6 week administration (Spijkstra et al)",An increase
same,"Effect on basal serum levels of LH, oestradiol and testosterone",men; administration to men (Lewis-Jones et al),elevates
same,Effect on testosterone and LH,men; intake in adult men (Comhaire et al),increase testosterone and LH
same,"Effect on basal LH, FSH and testosterone levels","men; three months' treatment, normogonadotrophic oligozoospermic men (van Bergeijk et al)",stimulated
